Experimental data taken from paper PMC5619143 (Future Microbiology, 2017).

System: LdtMav2
Assay: nitrocefin hydrolysis, absorbance at […] nm, Michaelis-Menten fit
Format: biochemical, Mycobacterium avium
Details: pH 6.5, 25 °C

O=C(Cc1cccs1)N[C@@H]1C(=O)N2C(C(=O)O)=C(/C=C/c3ccc([N+](=O)[O-])cc3[N+](=O)[O-])CS[C@H]12 [nitrocefin]
Km: 75 µM
